{
  "source": "patent US20260294906A1",
  "about": "“TREATING PSORIASIS USING A SMALL MOLECULE INHIBITOR OF TUMOR NECROSIS FACTOR ALPHA” (SANOFI, priority 2023, published 2026)",
  "test_system": "patients with mild to moderate psoriasis",
  "test": "Clinical response by Psoriasis Area and Severity Index (PASI) score, phase 1 placebo-controlled study",
  "type": "in vivo, human",
  "conditions": "for LSm (±SE) % improvement from baseline in total PASI score: 200 mg BID oral, fed; for LSm (±SE) % improvement from baseline in total PASI score / ΔLSm (±SE) (Compound 1 minus placebo) in % improvement from baseline in total PASI score: MMRM",
  "experimental": "A double-blind, randomized, placebo-controlled phase 1 study was carried out in participants with mild to moderate psoriasis. Study participants were randomized to 200 mg twice a day (BID) of Compound 1 or placebo in 2:1 ratio (approximately 24 in the treatment group and 12 in the placebo group). The study comprised an up to 4-week screening period, and a 4-week treatment period with Compound 1 or placebo. An end-of-study visit was carried out 10±3 days after the last investigational medicinal product (IMP) administration.\nThe primary objective of the study was to assess the safety, tolerability, and clinical efficacy of Compound 1 at 200 mg BID via oral administration. Also evaluated was the clinical effect of Compound 1 as compared to placebo on the percent change in PASI and TLS scores from baseline to week 2 and week 4. The percent change in PASI score from baseline to week 4 was determined. TLS score was also assessed over the same time period. Also assessed was the effect of Compound 1 on biomarkers of psoriasis. Blood samples collected at predetermined time points were processed to quantify serum levels of biomarkers, including interleukin (IL)-17A, IL-17F, and IL-22 by high sensitivity methods. IL-17A, IL-17F and IL-22 are the main cytokines released by Th17 cells. Plasma levels of Compound 1 were measured to assess pharmacokinetics in the study population.\nTwo study interventions were used, Compound 1 and placebo. The Compound 1 intervention comprised 4× tablets of Compound 1 50 mg twice daily, i.e. 200 mg BID, for 4 weeks. The placebo intervention was 4× tablets of placebo twice daily for 4 weeks. Tablets were administered orally.\nThe interventions were used in two arms of the study. Arm 1 was the experimental arm and it involved participants receiving 200 mg of Compound BID for 4 weeks under fed conditions. Arm 2 was the placebo arm and it involved participants receiving the matching placebo tablets for 4 weeks under fed conditions.\nThe PASI scoring system evaluates psoriasis based on the body surface area (BSA) involvement and morphological characteristics of the plaques (see, e.g., EMA Guidelines on clinical investigation of medicinal products indicated for the treatment of psoriasis, Nov. 18, 2004). BSA estimation was performed using the ‘palm’ (i.e., the subject's flat hand and thumb together, fingers not included). The palm thus defined represented 1% of the total BSA. The PASI combines assessments of four body areas: head (h, 10%), upper extremities (u, 20%), trunk (t, 30%) and lower extremities (1, 40%). Using the palm to assess BSA (as described above) the proportion of skin affected by psoriasis in each area was given a numerical score (A) representing the proportion involved: 1 (0 to 9%); 2 (10 to 29%); 3 (30 to 49%); 4 (50 to 69%); 5 (70 to 89%) and 6 (90 to 100%). Within each area the severity of three signs, erythema (E), thickness/induration (I), and desquamation/scaling (D), was each assessed on a five-point scale: 0, none; 1, mild; 2, moderate; 3, severe; 4, very severe. The PASI ranges from 0 to 72 and is calculated using the following formula: […]\nThe PASI score was assessed at baseline, 2 weeks and 4 weeks. Table 4 below presents the LSm (±SE) for each treatment and ΔLSm (Compound 1 minus placebo) with 90% confidence interval (CI) in percentage improvement from baseline in the total PASI score at week 2 and week 4.\nThe results in Table 4 were obtained using the MMRM.\nTable 5 below presents the mean (±SEM) percentage improvements from baseline in the total PASI score at week 2 and week 4 in the patient population with PASI<10 (mild) or PASI≥[…] at baseline.\nThe results in Table 5 come from standard descriptive analysis, ^(1)N=3, ^(2)N=15.",
  "note": "Where “and” joins values, the source holds several entries; their conditions need not be identical. Equal values may be shown once. Entries after “also recorded” stand apart in the source; their conditions may differ.",
  "data": [
    {"smiles": "CN1C(=O)c2cccc(OC(F)F)c2[C@H]2C[C@@H]1c1nc3ccc(-c4cnc(C5(N)CCC5)nc4)cc3n12", "note": "[Compound 1, (7R,14R)-11-[2-(1-aminocyclobutyl)pyrimidin-5-yl]-1-(difluoromethoxy)-6-methyl-6,7-dihydro-7,14-methanobenzimidazo[1,2-b][2,5]benzodiazocin-5(14H)-one]", "values": [
      {"measurement": "Mean (±SEM) % improvement from baseline in total PASI score", "setting": "PASI < 10 (mild) population, week 2, 200 mg BID, N = 16, SEM 3.98", "value": "21.24% and 21.2%"},
      {"measurement": "Mean (±SEM) % improvement from baseline in total PASI score", "setting": "PASI < 10 (mild) population, week 4, 200 mg BID, N = 15, SEM 5.34", "value": "33.8% and 33.83%"},
      {"measurement": "Mean (±SEM) % improvement from baseline in total PASI score", "setting": "PASI ≥ 10 (moderate) population, week 2, 200 mg BID, N = 9", "value": "9.3% and 9.31% and 9.3 (3.60) %"},
      {"measurement": "Mean (±SEM) % improvement from baseline in total PASI score", "setting": "PASI ≥ 10 (moderate) population, week 4, 200 mg BID, N = 9", "value": "33.2% and 33.19% and 33.2 (4.03) %"},
      {"measurement": "improvement in PASI score (in words)", "setting": "after 4 weeks of treatment", "value": "clinically meaningful"},
      {"measurement": "improvement in psoriasis severity / clinical efficacy (in words)", "setting": "compared to placebo, 4-week treatment, 200 mg BID", "value": "rapid and statistically significant improvement in psoriasis severity compared to placebo as early as week 2; also recorded: consistent clinical efficacy in a 4-week treatment period; also recorded: clinically effective, with sustained clinical response; also recorded: effective in improving clinical parameters in human patients"},
      {"measurement": "LSm (±SE) % improvement from baseline in total PASI score", "setting": "week 2, vs placebo 4.12%, p=0.005", "value": "17.73% and 17.73 (2.75) %"},
      {"measurement": "ΔLSm (±SE) (Compound 1 minus placebo) in % improvement from baseline in total PASI score", "setting": "week 2, 200 mg BID, 90% CI 5.28 to 21.94", "value": "13.61% and 13.61 (4.92) %"},
      {"measurement": "LSm (±SE) % improvement from baseline in total PASI score", "setting": "week 4, vs placebo 15.71%, p=0.009", "value": "35.09% and 35.09 (4.47) %"},
      {"measurement": "ΔLSm (±SE) (Compound 1 minus placebo) in % improvement from baseline in total PASI score", "setting": "week 4, 200 mg BID, 90% CI 6.28 to 32.48", "value": "19.4% and 19.38% and 19.38 (7.75) %"},
      {"measurement": "mean reduction in total PASI score from baseline", "setting": "week 4, FIG. 2, placebo around 1.25 points", "value": "around 3.0 points"}
    ]}
  ]
}
